This note sets out measurements from US6541467B1, “Thrombin inhibitors having a lactam at P3” (Corvas International, Inc., priority 2000, dated 2003).

Type in all cases: biochemical
One assay has as its target T1, human α-thrombin (Homo sapiens, UniProt P00734).
T1 construct: Purified human α-thrombin; purchased Enzyme Research Laboratories, Inc
The assay can be described thus: Thrombin (fIIa) chromogenic enzyme assay. As to conditions: for IC50: 0 min. How it is done:
For screening compounds using these assays, the compounds of the present invention are dissolved in buffer to give solutions containing concentrations such that assay concentrations range from 0 to 100 micromolar. In the assays for thrombin, plasmin, t-PA, aPC, chymotrypsin, and trypsin, a chromogenic synthetic substrate is added to a solution containing test compound and the enzyme of interest and the residual catalytic activity of that enzyme is determined spectrophometrically. The IC50 of a compound of the present invention is determined from the rate of substrate turnover caused by the specific enzyme being measured. IC50 is the concentration of test compound which gives 50% inhibition of the rate of substrate turnover. Likewise, the Ki of a compound of the present invention is determined from the rate of substrate turnover caused by the specific enzyme being measured at various […] concentrations. Example A provides exemplars of in vitro assays used to select the compounds of the present invention.
(§1) The ability of compounds of the present invention to act as a selective inhibitor of thrombin activity was assessed by determining the concentration of test-compound which inhibited the activity of this enzyme by 50%, (IC50), and comparing this value to that determined for all or some of the following related serine proteases: recombinant tissue plasminogen activator (rt-PA), plasmin, activated protein C, chymotrypsin, factor Xa and trypsin.
(§2) The buffer used for all assays was HBSA (10 mM HEPES, pH 7.5, 150 mM sodium chloride, 0.1% bovine serum albumin).
The assay for IC50 determinations was conducted by combining in appropriate wells of a Corning microtiter plate, 50 microliters of HBSA, 50 microliters of the test compound at a specified concentration (covering a broad concentration range) diluted in HBSA (or HBSA alone for V0 (uninhibited velocity) measurement), and 50 microliters of the enzyme diluted in HBSA. […] The initial velocity of chromogenic substrate hydrolysis was measured by the change in absorbance at 405 nm using a Thermo Max® Kinetic Microplate Reader over a 5 minute period in which less than 5% of the added substrate was utilized. The concentration of added inhibitor which caused a 50% decrease in the initial rate of hydrolysis was defined as the IC50 value.
Enzyme activity was determined using the chromogenic substrate, Pefachrome t-PA (CH3SO2-D-hexahydrotyrosine-glycyl-L-Arginine-p-nitroaniline, obtained from Pentapharm Ltd.). The substrate was reconstituted in deionized water prior to use. Purified human α-thrombin was obtained from Enzyme Research Laboratories, Inc. The buffer used for all assays was HBSA (10 mM HEPES, pH 7.5, 150 mM sodium chloride, 0.1% bovine serum albumin).
The initial velocity of Pefachrome t-PA hydrolysis was measured by the change in absorbance at 405 nm using a Thermo Max® Kinetic Microplate Reader over a 5 minute period in which less than 5% of the added substrate was utilized. The concentration of:added inhibitor which caused a 50% decrease in the initial rate of hydrolysis was defined as the IC50 value.

A further assay concerns the target T2, human plasmin (Homo sapiens, UniProt P00747).
T2 construct: Purified human plasmin; purchased Enzyme Research Laboratories, Inc
Briefly: Plasmin chromogenic enzyme assay. Here is the method:
as §1, §2
(§3) The assay for IC50 determinations was conducted by combining in appropriate wells of a Corning microtiter plate, 50 microliters of HBSA, 50 microliters of the test compound at a specified concentration (covering a broad concentration range) diluted in HBSA (or HBSA alone for V0 (uninhibited velocity) measurement), and 50 microliters of the enzyme diluted in HBSA. Following a 30 minute incubation at ambient temperature, 50 microliters of the substrate at the concentrations specified below were added to the wells, yielding a final total volume of 200 microliters. The initial velocity of chromogenic substrate hydrolysis was measured by the change in absorbance at 405 nm using a Thermo Max® Kinetic Microplate Reader over a 5 minute period in which less than 5% of the added substrate was utilized. The concentration of added inhibitor which caused a 50% decrease in the initial rate of hydrolysis was defined as the IC50 value.
Plasmin catalytic activity was determined using the chromogenic substrate, S-2366 [L-pyroglutamyl-L-prolyl-L-arginine-p-nitroaniline hydrochloride], which was obtained from DiaPharma group. The substrate was made up in deionized water followed by dilution in HBSA prior to the assay in which the final concentration was 300 micromolar (about 2:.5-times Km). Purified human plasmin was obtained from Enzyme Research Laboratories, Inc. The enzyme was diluted into HBSA prior to assay in which the final concentration was 1.0 nM.

A further assay has as its target T3, Factor Xa (Homo sapiens, UniProt P00742).
T3 construct: purchased Enzyme Research Laboratories, Inc. (South Bend, Ind.)
Briefly: Factor Xa chromogenic enzyme assay. As to conditions: read-out: fXa IC50. How it is done: as §1, §2, §3
Factor Xa catalytic activity was determined using the chromogenic substrate S-2765 (N-benzyloxycarbonyl-D-arginine-L-glycine-L-arginine-p-nitroaniline), obtained from DiaPharma Group (Franklin, Ohio). All substrates were reconstituted in deionized water prior to use. […] Purified human Factor X was obtained from Enzyme Research Laboratories, Inc. (South Bend, Ind.) and Factor Xa (FXa) was activated and prepared from it as described [Bock, P. E., Craig, P. A., Olson, S. T., and Singh, P. Arch. Biochem. Biophys. 273:375-388 (1989)]. The enzyme was diluted into HBSA prior to assay in which the final concentration was 0.25 nM.

For assay [1], the target named is T4, bovine pancreatic trypsin (Bos taurus, UniProt P00760).
T4 sequence (P00760 24-246): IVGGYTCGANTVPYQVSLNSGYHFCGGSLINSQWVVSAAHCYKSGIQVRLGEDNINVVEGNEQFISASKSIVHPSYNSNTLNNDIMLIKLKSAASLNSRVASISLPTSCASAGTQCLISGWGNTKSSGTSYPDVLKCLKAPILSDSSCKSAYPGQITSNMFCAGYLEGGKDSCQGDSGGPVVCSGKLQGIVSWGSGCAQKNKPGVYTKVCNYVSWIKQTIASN
Briefly: Trypsin chromogenic enzyme assay. How it is done:
as §1, §2, §3
Trypsin catalytic activity was determined using the chromogenic substrate, S-2222 (benzoyl-L-isoleucine-L-glutamic acid-[gamma-methyl ester]-L-arginine-p-nitroanilide), which was obtained from DiaPharma Group. […] Purified (3×-crystallized; TRL3) bovine pancreatic trypsin was obtained from Worthington Biochemical Corp. The enzyme was reconstituted in deionized water and diluted into HBSA prior to assay in which the final concentration was 0.5 nM.

T2 sequence (P00747 581-810 limits assumed): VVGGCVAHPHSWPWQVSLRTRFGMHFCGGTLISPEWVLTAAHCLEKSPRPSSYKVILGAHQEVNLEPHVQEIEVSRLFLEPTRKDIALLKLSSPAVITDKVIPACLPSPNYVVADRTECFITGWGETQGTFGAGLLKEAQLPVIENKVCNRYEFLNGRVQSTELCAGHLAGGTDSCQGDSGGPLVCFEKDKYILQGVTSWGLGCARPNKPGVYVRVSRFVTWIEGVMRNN
T2 sequence (P00747 97-580 partner limits assumed): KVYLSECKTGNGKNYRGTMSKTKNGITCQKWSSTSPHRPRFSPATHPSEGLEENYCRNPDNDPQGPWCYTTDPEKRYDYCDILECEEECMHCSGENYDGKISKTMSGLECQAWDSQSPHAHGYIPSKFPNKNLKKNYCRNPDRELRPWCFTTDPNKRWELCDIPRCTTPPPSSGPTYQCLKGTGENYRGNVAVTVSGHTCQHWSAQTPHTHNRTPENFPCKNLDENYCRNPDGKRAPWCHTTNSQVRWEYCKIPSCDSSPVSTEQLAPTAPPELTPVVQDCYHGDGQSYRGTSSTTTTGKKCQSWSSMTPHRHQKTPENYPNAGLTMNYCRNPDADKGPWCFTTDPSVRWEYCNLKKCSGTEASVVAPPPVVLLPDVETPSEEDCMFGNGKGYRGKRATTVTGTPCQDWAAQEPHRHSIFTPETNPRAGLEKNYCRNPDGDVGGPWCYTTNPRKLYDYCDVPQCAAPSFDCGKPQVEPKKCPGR
T3 sequence (P00742 235-488 limits assumed): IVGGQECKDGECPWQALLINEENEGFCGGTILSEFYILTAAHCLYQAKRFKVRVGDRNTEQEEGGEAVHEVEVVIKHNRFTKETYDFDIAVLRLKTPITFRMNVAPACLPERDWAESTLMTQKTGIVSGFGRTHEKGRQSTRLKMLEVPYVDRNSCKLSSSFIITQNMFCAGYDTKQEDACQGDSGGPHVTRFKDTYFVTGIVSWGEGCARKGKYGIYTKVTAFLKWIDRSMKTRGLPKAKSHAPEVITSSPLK
T3 sequence (P00742 41-179 partner limits assumed): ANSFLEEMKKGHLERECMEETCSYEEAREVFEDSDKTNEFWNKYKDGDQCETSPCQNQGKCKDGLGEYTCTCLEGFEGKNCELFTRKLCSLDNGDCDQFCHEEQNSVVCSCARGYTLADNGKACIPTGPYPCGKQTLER

Compound `N=C(N)c1ccc(CNC(=O)CN2CCCC[C@H](NS(=O)(=O)c3ccc4ccccc4c3)C2=O)cc1` [Example 44] came in with a Ki on human α-thrombin of 100 to 300 nM. The IC50 at human α-thrombin is 300 to 2500 nM; on human plasmin it was at least 2500 nM; on Factor Xa it was at least 2500 nM; in assay [1], 100 to 300 nM.
Consider `N=C(N)c1ccc(CNC(=O)CN2CCCC[C@H](NS(=O)(=O)c3ccccc3)C2=O)cc1` [Example 45], for which the Ki at human α-thrombin is at most 100 nM. In addition, the IC50 at human α-thrombin is 100 to 300 nM; against human plasmin, at least 2500 nM; at Factor Xa it was at least 2500 nM; in assay [1] it was 100 to 300 nM.
On human α-thrombin, `COc1ccc(OC)c(S(=O)(=O)N[C@H]2CCCCN(CC(=O)NCc3ccc(C(=N)N)cc3)C2=O)c1` [Example 46] returned a Ki of at most 100 nM. Further, the IC50 on human α-thrombin was at most 100 nM; on human plasmin it was at least 2500 nM; on Factor Xa, at least 2500 nM; in assay [1] it was at least 2500 nM.
Consider `COc1ccc(S(=O)(=O)N[C@H]2CCCCN(CC(=O)NCc3ccc(C(=N)N)cc3)C2=O)cc1OC` [Example 47], for which, at human α-thrombin, the Ki is at most 100 nM. Moreover, the IC50 against human α-thrombin was at most 100 nM; on human plasmin, at least 2500 nM; at Factor Xa, at least 2500 nM; in assay [1], 100 to 300 nM.
On human α-thrombin, `N[C@H]1CC[C@H](CNC(=O)CN2CCCC[C@H](NS(=O)(=O)c3ccc4c(c3)CCO4)C2=O)CC1` [Example 48] returned an inhibition constant (Ki) of at most 100 nM. Further, the 50% inhibitory concentration (IC50) at human α-thrombin is 300 to 2500 nM; at human plasmin, at least 2500 nM; at Factor Xa, at least 2500 nM; in assay [1], at least 2500 nM.
The compound `O=C(CN1CCCC[C@H](NS(=O)(=O)c2ccc3c(c2)CCO3)C1=O)NCc1ccc2[nH]ncc2c1` [Example 49] returned an inhibition constant (Ki) at human α-thrombin of 100 to 300 nM. Moreover, the IC50 on human α-thrombin was 300 to 2500 nM; against human plasmin, at least 2500 nM; on Factor Xa, at least 2500 nM; in assay [1], at least 2500 nM.
`N/C(=N\O)c1ccc(CNC(=O)CN2C(=O)[C@@H](NS(=O)(=O)c3ccc4c(c3)CCO4)CCc3ccccc32)cc1` [Example 54, 3-(S)-(2,3-Dihydrobenzo[b]furanyl-5-sulfonyl)amino-1-(4-hydroxyamidinylbenzylmethylenecarboxamido)-4,5-dihydrobenzo[f]azepin-2-one] gave an inhibition constant Ki at human α-thrombin of 300 to 2500 nM. For the same compound, the 50% inhibitory concentration (IC50) (on human α-thrombin; on human plasmin; on Factor Xa; in assay [1]) was at least 2500 nM throughout.
`N=C(N)c1ccc(CNC(=O)CN2C(=O)[C@@H](NS(=O)(=O)c3ccc4c(c3)CCO4)CCc3ccccc32)cc1` [Example 55, 3-(S)-(2,3-Dihydrobenzo[b]furanyl-5-sulfonyl)amino-1-(4-amidinylphenylmethylenecarboxamido)-4,5-dihydrobenzo[f]azepin-2-one] gave an inhibition constant (Ki) at human α-thrombin of at most 100 nM. Also, the IC50 against human α-thrombin is at most 100 nM; against human plasmin it was at least 2500 nM; at Factor Xa it was at least 2500 nM; in assay [1] it was 300 to 2500 nM.
The compound `N=C(N)N1CCC(CNC(=O)CN2C(=O)[C@@H](NS(=O)(=O)c3ccc4c(c3)CCO4)CCc3ccccc32)CC1` [Example 56, 3-(S)-(2,3-Dihydrobenzo[b]furanyl-5-sulfonyl)amino-1-(1-amidino-4-methylenecarboxamidomethylpiperidyl)-4,5-dihydrobenzo[f]azepin-2-one] had an inhibitory constant (Ki) at human α-thrombin of at most 100 nM. Also, the half-inhibitory concentration (IC50) was 300 to 2500 nM on human α-thrombin, at least 2500 nM against human plasmin, at least 2500 nM at Factor Xa and at least 2500 nM in assay [1].
With `N/C(=N\O)c1ccc(CNC(=O)[C@@H]2Cc3cccc4c3N2C(=O)[C@@H](NS(=O)(=O)c2ccc3c(c2)CCO3)CC4)cc1` [Example 60, N-(2,3-Dihydrobenzo[b]furanyl-5-sulfonyl)-Haic-aminomethylphenyl-N-hydroxyamidine], at human α-thrombin, the Ki is at least 2500 nM. In addition, the IC50 (at human α-thrombin; against human plasmin; on Factor Xa; in assay [1]) was at least 2500 nM in each case.
The compound `N=C(N)c1ccc(CNC(=O)[C@@H]2Cc3cccc4c3N2C(=O)[C@@H](NS(=O)(=O)c2ccc3c(c2)CCO3)CC4)cc1` [Example 61, N-(2,3-Dihydrobenzo[b]furanyl-5-sulfonyl)-Haic-aminomethylphenylamidine] showed a Ki at human α-thrombin of at most 100 nM. Further, the IC50 against human α-thrombin was at most 100 nM; on human plasmin it was at least 2500 nM; on Factor Xa, 300 to 2500 nM; in assay [1], at most 100 nM.
`N[C@H]1CC[C@H](CNC(=O)CN2CCCC[C@H](NS(=O)(=O)Cc3ccccc3)C2=O)CC1` [Example 65]: the Ki on human α-thrombin lay in the range of 100 to 300 nM. Also, the IC50 against human α-thrombin is 300 to 2500 nM; against human plasmin, at least 2500 nM; on Factor Xa, at least 2500 nM; in assay [1] it was at least 2500 nM.
Compound `Cc1nc(N)ccc1CNC(=O)CN1CCCC[C@H](NS(=O)(=O)Cc2ccccc2)C1=O` [Example 66] registered a Ki on human α-thrombin of at most 100 nM. In addition, the IC50 against human α-thrombin was 300 to 2500 nM; against human plasmin, at least 2500 nM; on Factor Xa, at least 2500 nM; in assay [1] it was at least 2500 nM.
`N=C(N)c1ccc(CNC(=O)CN2CCCC[C@H](NS(=O)(=O)Cc3ccccc3)C2=O)cc1` [Example 67] displayed an inhibition constant Ki on human α-thrombin of at most 100 nM. Also, the 50% inhibitory concentration (IC50) against human α-thrombin is 100 to 300 nM; at human plasmin, at least 2500 nM; on Factor Xa, 300 to 2500 nM; in assay [1] it was 300 to 2500 nM.

The Ki is the equilibrium dissociation constant of an inhibitor or competing ligand from its target. A high value points to weaker binding. As usually defined, the IC50 is the concentration that gives 50% inhibition.
